Assay results published in article PMC3910367 (Science signaling, 2013).
Read-outs that look alike come from different tables or passages of the source.

Legend:
[1] = tested on: LNCaP and PC-3 cells; assay: MTT viability assay in prostate cancer cells; format: cell-based; details: read-out: IC50, antiproliferative effect (cell viability)
[2] = tested on: normal prostate epithelial cells; assay: MTT viability assay in normal prostate epithelial cells; format: cell-based; details: for apoptosis in normal prostate epithelial cells: fig. S1A
[3] = tested on: LNCaP-abl cells; assay: MTT viability assay in LNCaP-abl cells; format: cell-based; details: read-out: IC50, antiproliferative effect, fig. S5D
[4] = tested on: Akt; assay: Western blot of Akt phosphorylation in prostate cancer cells; format: cell-based; details: for phosphorylation at Ser473 in Akt / phosphorylation at Thr308 in Akt: LNCaP and PC-3 cells, 24 hours; for concentrations required to induce PHLPP1-mediated Akt inhibition: prostate cancer cells
[5] = tested on: mTORC2; assay: Western blot of mTORC2 components and downstream targets; format: cell-based; details: fig. S2C
[6] = tested on: LNCaP cells; format: cell-based; details: 24 hours
[7] = tested on: LNCaP cells; assay: Cholesterol content of membrane subfractions; format: cell-based; details: fractions 3 and 4
[8] = biological target: T1, PH domain of PHLPP1 (Homo sapiens, UniProt O60346); assay: SPR binding to GST-tagged PH domain of PHLPP1
T1 sequence (O60346 536-636 limits assumed): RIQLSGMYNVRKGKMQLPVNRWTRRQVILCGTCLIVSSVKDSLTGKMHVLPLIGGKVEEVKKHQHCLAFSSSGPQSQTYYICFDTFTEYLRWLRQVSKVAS

[9] = biological target: Y38G PH domain mutant of Akt (Homo sapiens, UniProt P31749, Y38G); assay: SPR binding to Y38G Akt PH domain mutant; details: versus wild-type PH domain
Y38G PH domain mutant of Akt, sequence (P31749 5-108 Y38G limits assumed): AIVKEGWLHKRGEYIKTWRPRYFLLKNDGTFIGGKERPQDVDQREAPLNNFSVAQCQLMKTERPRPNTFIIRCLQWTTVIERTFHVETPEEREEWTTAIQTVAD

[10] = biological target: PH domain of Akt (Homo sapiens, UniProt P31749); assay: SPR binding to GST-tagged PH domain of Akt; details: read-out: Kd, wild-type Akt PH domain
PH domain of Akt, sequence (P31749 5-108 limits assumed): as the sequence (P31749 5-108 Y38G limits assumed) above, with G34Y counted along it

[11] = tested on: PIP3; assay: Radiometric analysis of phosphoinositide production; format: cell-based; details: LNCaP cells, 500 μM, 6 hours

SMILES	IC50 ([1]; LNCaP and PC-3 cells, MTT, 24 hours, serum-free medium)	IC50 ([2]; read-out: IC50, cell viability, MTT, 24 hours)	IC50 [3]	phosphorylation at Ser473 in Akt [4]	phosphorylation at Thr308 in Akt [4]	phosphorylation of SGK or PKCα (mTORC2 downstream targets) [5]	decrease in phosphorylation of Ser473 in Akt in non-raft fractions [6]	increase in association of PHLPP1 with the membrane in non-raft fractions [6]	reduction of cholesterol content in raft domains [7]	binding to PH domains of Akt and PHLPP1 compared [8]	effect of Y38G mutation on binding affinity for the Akt PH domain [9]	Kd [10]	IC50 ([1]; 24 h)	apoptosis in normal prostate epithelial cells [2]	concentrations required to induce PHLPP1-mediated Akt inhibition [4]	PIP3 concentrations [11]
Cc1c(C)c2c(c(C)c1O)CCC(C)(CCCC(C)C)O2 (stereo not drawn) [α-VE5]	15 to 20 µM	~50 µM	10 µM	parallel reduction	without disturbing	lack of changes	more than 65%	more than 2.5 fold	≤ 30%	equal potency	significantly enhanced	3.4 µM				
Cc1c(C)c2c(c(C)c1O)CC[C@@](C)(CCC[C@H](C)CCC[C@H](C)CCCC(C)C)O2 [α-tocopherol]				dose-dependently reduced	without altering	no effect							~400 µM	resistant	greater than 150 μM	unaffected
Cc1c(O)cc2c(c1C)O[C@](C)(CCC[C@H](C)CCC[C@H](C)CCCC(C)C)CC2 [γ-tocopherol]				dose-dependently reduced	without altering	no effect							100 to 150 µM	resistant	greater than 150 μM	
